Assays:
[1] = tested on: HIV strain IIIB (wild type); assay: microbe, parasite or virus in culture; details: for IIIB pEC50 (−log EC50): wild type HIV strain IIIB, MT4 LTR-EGFP cells, GFP fluorescence, three days after infection; for EC50: Human immunodeficiency virus 1, IIIB, 72 h, read-out: IIIB pEC50 (−log EC50) (converted)
Description: Compounds of the invention were tested for their potency against wild type virus and clinically isolated HIV strains harboring one or more mutations associated with resistance to reverse transcriptase inhibitors. Antiviral activity was evaluated using a cellular assay performed according to the following procedure.
The human T-cell line MT4 was engineered with Green Fluorescent Protein (GFP) and a HIV-specific promoter, HIV-1 long terminal repeat (LTR). This cell line, designated MT4 LTR-EGFP, can be used for the in vitro evaluation of anti-HIV activity of investigational compounds. In HIV-1 infected cells, the Tat protein is produced, which upregulates the LTR promotor and eventually leads to stimulation of the GFP reporter production, allowing to measure ongoing HIV-infection fluorometrically.
Analogously, MT4 cells were engineered with GFP and the constitutional cytomegalovirus (CMV) promotor. […] Cytotoxic investigational compounds reduce GFP levels of mock-infected MT4 CMV-EGFP cells.
The ratio of CC50 to EC50 is defined as the selectivity index (SI) and is an indication of the selectivity of the anti-HIV activity of the inhibitor. The ultimate monitoring of HIV-1 infection and cytotoxicity was done using a scanning microscope. Image analysis allows very sensitive detection of viral infection. Measurements were done before cell necrosis, which usually takes place about five days after infection, in particular measurements were performed three days after infection.
The columns IIIB, L100I, etc. in the table list the pEC50 (−log EC50) values against various strains IIIB, L100I, etc.; pSI lists the −log SI values.
Strain IIIB is wild type HIV strain.

[2] = tested on: HIV strain K103N + Y181C; assay: microbe, parasite or virus in culture; format: cell-based, HIV-1; details: for K103N + Y181C pEC50 (−log EC50): HIV strain K103N + Y181C, MT4 LTR-EGFP cells, three days after infection; for EC50: Human immunodeficiency virus 1, 72 h, read-out: K103N + Y181C pEC50 (−log EC50) (converted)
Excerpt: (§1) Image analysis allows very sensitive detection of viral infection.

[3] = tested on: HIV strain L100I + K103N; assay: microbe, parasite or virus in culture; format: cell-based, HIV-1; details: for L100I + K103N pEC50 (−log EC50): HIV strain L100I + K103N, MT4 LTR-EGFP cells, three days after infection
Excerpt: as §1

[4] = tested on: HIV strain Y181C; assay: microbe, parasite or virus in culture; format: cell-based, HIV-1; details: for Y181C pEC50 (−log EC50): HIV strain Y181C, MT4 LTR-EGFP cells, three days after infection; for EC50: Human immunodeficiency virus 1, 72 h, read-out: Y181C pEC50 (−log EC50) (converted)
Excerpt: as §1

[5] = target: HIV strain MDR (L100I, K103N, Y181C, E138G, V179I, L2214F, V278V/I and A327A/V in HIV reverse transcriptase); assay: microbe, parasite or virus in culture; format: cell-based, HIV-1; details: for MDR pEC50 (−log EC50): MDR HIV strain (multiple RT mutations), MT4 LTR-EGFP cells, three days after infection; for EC50: Human immunodeficiency virus 1, 72 h, read-out: MDR pEC50 (−log EC50) (converted)
Excerpt: as §1
“MDR” refers to a strain that contains mutations L100I, K103N, Y181C, E138G, V179I, L2214F, V278V/I and A327A/V in HIV reverse transcriptase.

SMILES | IIIB pEC50 (−log EC50) [1] | K103N + Y181C pEC50 (−log EC50) [2] | L100I + K103N pEC50 (−log EC50) [3] | Y181C pEC50 (−log EC50) [4] | MDR pEC50 (−log EC50) [5] | EC50 [1] [nM] | EC50 [2] [nM] | EC50 [4] [nM] | EC50 [5] [nM] | melting point [°C] | EC50 ([3]; Human immunodeficiency virus 1, 72 h, read-out: L100I + K103N pEC50 (−log EC50) (converted)) [nM]
Cc1cc(/C=C/C#N)cc(C)c1Nc1cc(CN2CCN(C)CC2)nc(Nc2ccc(C#N)cc2)n1 [Compound 13] | 8.54 | 7.68 | 7.20 | 7.79 | 5.59 | – | – | – | – | – | –
CCOP(=O)(OCC)OCc1cc(Nc2c(C)cc(/C=C/C#N)cc2C)nc(Nc2ccc(C#N)cc2)n1 [Compound 32] | 8.50 | 7.50 | 7.20 | 7.60 | 6.40 | – | – | – | – | – | –
Cc1cc(/C=C/C#N)cc(C)c1Nc1cc(C(=O)NCc2ccncc2)nc(Nc2ccc(C#N)cc2)n1 [Compound 7] | – | – | – | – | – | 4.17 | 17.8 | 16.6 | 2340 | 202 | –
Cc1cc(C=CC#N)cc(C)c1Nc1cc(CNCC2CC2)nc(Nc2ccc(C#N)cc2)n1 (mixture of isomers) [Compound 14] | 8.52 | 7.76 | 7.00 | 7.85 | 5.67 | – | – | – | – | – | –
Cc1cc(/C=C/C#N)cc(C)c1Nc1cc(CNCc2cccnc2)nc(Nc2ccc(C#N)cc2)n1 [Compound 27] | – | – | – | – | – | 3.8 | 3.09 | 16.2 | 1170 | – | –
Cc1cc(C=CC#N)cc(C)c1Nc1cc(CNCCCN2CCOCC2)nc(Nc2ccc(C#N)cc2)n1 (mixture of isomers) [Compound 29] | 7.70 | 7.01 | 6.66 | 7.06 | 5.67 | – | – | – | – | – | –
Cc1cc(C=CC#N)cc(C)c1Nc1cc(CNCCc2ccc(S(N)(=O)=O)cc2)nc(Nc2ccc(C#N)cc2)n1 (mixture of isomers) [Compound 17] | 7.80 | 7.04 | 6.41 | 7.01 | 5.56 | – | – | – | – | – | –
Cc1cc(C=CC#N)cc(C)c1Nc1cc(Cn2ccnc2)nc(Nc2ccc(C#N)cc2)n1 (mixture of isomers) [Compound 19] | 8.48 | 6.97 | 6.83 | 7.68 | 5.32 | – | – | – | – | – | –
Cc1cc(C=CC#N)cc(C)c1Nc1cc(CNCc2ccco2)nc(Nc2ccc(C#N)cc2)n1 (mixture of isomers) [Compound 26] | 8.43 | 8.07 | – | 7.62 | 5.57 | – | – | – | – | – | –
Cc1cc(C=CC#N)cc(C)c1Nc1cc(CN(C)CC#N)nc(Nc2ccc(C#N)cc2)n1 [Compound 21] | 8.47 | 7.71 | 7.16 | 7.73 | 5.70 | – | – | – | – | – | –
Cc1cc(C=CC#N)cc(C)c1Nc1cc(CNCc2ccncc2)nc(Nc2ccc(C#N)cc2)n1 (mixture of isomers) [Compound 30] | 8.55 | 7.89 | 7.56 | 7.69 | 5.80 | – | – | – | – | – | –
COc1ccccc1C(O)c1cc(Nc2c(C)cc(/C=C/C#N)cc2C)nc(Nc2ccc(C#N)cc2)n1 (stereo not drawn) [Compound 3] | – | – | – | – | – | 7.24 | 263 | 105 | 2950 | – | 95.5
CC(=O)NCCNCc1cc(Nc2c(C)cc(C=CC#N)cc2C)nc(Nc2ccc(C#N)cc2)n1 (mixture of isomers) [Compound 22] | 7.93 | 7.02 | 6.35 | 7.09 | 5.50 | – | – | – | – | – | –
